Source: ChEMBL document CHEMBL6115031, “Structure-Based Optimization of Moracin M as Potent and Selective PDE4 Inhibitors with Antipsoriasis Effects” (J Med Chem, 2025)
Calls of active or inactive are those of the source. No cut-off for these calls is given here.

Legend:
[1] = target: T1, 3',5'-cyclic-AMP phosphodiesterase 4D (Homo sapiens, UniProt Q08499); test: Inhibition of human PDE4D2 (86 to 413 residues) extracted from Escherichia coli BL21 cells using 3H-cAMP/3H-cGMP as substrate preincubated with compound for 15 mins followed by substrate addition by liquid scintillation counter
[2] = Metabolic stability in rat liver microsomes assessed as half life at 1 uM incubated upto 60 mins in presence of NADPH by LC-MS/MS analysis; type: ADME, Microsome
[3] = target: T1, 3',5'-cyclic-AMP phosphodiesterase 4D; test: Inhibition of PDE4D (unknown origin)
HaCaT [4] = test: Anti-psoriasis activity in M5-stimulated human HaCaT cells assessed as restoration of cAMP level at 20 uM incubated for 2 hrs by competitive ELISA; type: functional, cell-based
HaCaT [5] = test: Inhibition of CREB phosphorylation in human HaCaT cells assessed as increase in pCREB/CREB ratio at 20 uM incubated for 2 hrs by Western blotting analysis; type: cell-based
Mus musculus [6] = test: Anti-inflammatory activity in IMQ-induced psoriasis in female BALB/c mouse assessed as reduction in TNF-alpha mRNA level at 20 mg/kg administered topically as 0.3 % ointment pretreated with IMQ for 6 hrs followed by compound addition once daily for 7 days by q-PCR analysis; type: functional, organism-based; conditions: time 7.0 day
Mus musculus [7] = test: Anti-inflammatory activity in IMQ-induced psoriasis in female BALB/c mouse assessed as reduction in IL-1beta mRNA level at 20 mg/kg administered topically as 0.3 % ointment pretreated with IMQ for 6 hrs followed by compound addition once daily for 7 days by q-PCR analysis; type: functional, organism-based; conditions: time 7.0 day
Mus musculus [8] = test: Anti-inflammatory activity in IMQ-induced psoriasis in female BALB/c mouse assessed as reduction in IL-6 mRNA level at 20 mg/kg administered topically as 0.3 % ointment pretreated with IMQ for 6 hrs followed by compound addition once daily for 7 days by q-PCR analysis; type: functional, organism-based; conditions: time 7.0 day
Mus musculus [9] = test: Anti-inflammatory activity in IMQ-induced psoriasis in female BALB/c mouse assessed as reduction in IL-17 mRNA level at 20 mg/kg administered topically as 0.3 % ointment pretreated with IMQ for 6 hrs followed by compound addition once daily for 7 days by q-PCR analysis; type: functional, organism-based; conditions: time 7.0 day
Mus musculus [10] = test: Anti-inflammatory activity in IMQ-induced psoriasis in female BALB/c mouse assessed as reduction in CXCL-2 mRNA level at 20 mg/kg administered topically as 0.3 % ointment pretreated with IMQ for 6 hrs followed by compound addition once daily for 7 days by q-PCR analysis; type: functional, organism-based; conditions: time 7.0 day
Mus musculus [11] = test: Anti-inflammatory activity in IMQ-induced psoriasis in female BALB/c mouse assessed as reduction in CCL-20 mRNA level at 20 mg/kg administered topically as 0.3 % ointment pretreated with IMQ for 6 hrs followed by compound addition once daily for 7 days by q-PCR analysis; type: functional, organism-based; conditions: time 7.0 day
Mus musculus [12] = test: Anti-psoriasis effect in IMQ-induced female BALB/c mouse model assessed as reduction in spinous layer thickness at 20 mg/kg administered topically as 0.3 % ointment pretreated with IMQ for 6 hrs followed by compound addition once daily for 7 days by H and E staining based analysis; type: functional, organism-based; conditions: time 7.0 day
Mus musculus [13] = test: Anti-psoriasis effect in IMQ-induced female BALB/c mouse model assessed as reduction in abnormal rete ridges at 20 mg/kg administered topically as 0.3 % ointment pretreated with IMQ for 6 hrs followed by compound addition once daily for 7 days by H and E staining based analysis; type: functional, organism-based; conditions: time 7.0 day
Mus musculus [14] = test: Anti-psoriasis effect in IMQ-induced female BALB/c mouse model assessed as reduction in fibroblast proliferation at 20 mg/kg administered topically as 0.3 % ointment pretreated with IMQ for 6 hrs followed by compound addition once daily for 7 days by H and E staining based analysis; type: functional, organism-based; conditions: time 7.0 day
Mus musculus [15] = test: Anti-psoriasis effect in IMQ-induced female BALB/c mouse model assessed as reduced bleeding in dermal papilla layers at 20 mg/kg administered topically as 0.3 % ointment pretreated with IMQ for 6 hrs followed by compound addition once daily for 7 days by H and E staining based analysis; type: functional, organism-based; conditions: time 7.0 day

T1 sequence (Q08499 whole entry, the tested form may be a part): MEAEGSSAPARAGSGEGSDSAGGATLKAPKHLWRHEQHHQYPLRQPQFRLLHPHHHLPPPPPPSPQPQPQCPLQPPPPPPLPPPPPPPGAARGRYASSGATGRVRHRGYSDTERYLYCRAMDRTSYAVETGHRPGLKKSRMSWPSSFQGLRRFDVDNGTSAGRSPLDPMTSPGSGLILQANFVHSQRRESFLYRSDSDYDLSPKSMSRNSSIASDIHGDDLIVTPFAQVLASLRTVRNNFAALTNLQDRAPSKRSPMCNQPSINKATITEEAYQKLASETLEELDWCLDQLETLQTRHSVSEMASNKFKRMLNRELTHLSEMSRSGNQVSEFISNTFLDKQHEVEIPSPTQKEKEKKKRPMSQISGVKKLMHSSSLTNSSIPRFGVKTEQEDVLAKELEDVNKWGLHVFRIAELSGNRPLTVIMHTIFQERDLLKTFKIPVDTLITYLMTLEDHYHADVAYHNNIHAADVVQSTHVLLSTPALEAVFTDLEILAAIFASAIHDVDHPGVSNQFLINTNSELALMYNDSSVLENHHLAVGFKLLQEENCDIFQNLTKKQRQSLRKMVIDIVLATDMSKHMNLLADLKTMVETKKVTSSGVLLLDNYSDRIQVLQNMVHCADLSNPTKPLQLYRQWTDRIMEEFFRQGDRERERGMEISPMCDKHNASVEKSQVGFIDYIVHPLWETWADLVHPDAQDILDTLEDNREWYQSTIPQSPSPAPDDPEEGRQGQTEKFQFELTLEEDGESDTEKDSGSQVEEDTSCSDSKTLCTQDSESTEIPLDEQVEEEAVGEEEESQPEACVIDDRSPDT

| Compound | IC50 [1] [nM] | half-life at 1 µM [2] [min] | further results |
| --- | --- | --- | --- |
| COC(=O)CCCOc1c(O)ccc2cc(-c3ccc(OC(F)F)c(OCC4CC4)c3)oc12 | 14.4 | 0.7 | – |
| N[C@@H](CCOc1c(O)ccc2cc(-c3ccc(OC(F)F)c(OCC4CC4)c3)oc12)C(=O)O | > 100 | – | – |
| O=C(O)COc1c(O)ccc2cc(-c3ccc(OC(F)F)c(OCC4CC4)c3)oc12 | 23.7 | – | – |
| COC(=O)CCCCOc1c(O)ccc2cc(-c3ccc(OC(F)F)c(OCC4CC4)c3)oc12 | 23.5 | 3.6 | – |
| CCOC(=O)CCCOc1c(O)ccc2cc(-c3ccc(OC(F)F)c(OCC4CC4)c3)oc12 | 22.7 | – | – |
| Oc1ccc2cc(-c3ccc(OC(F)F)c(OCC4CC4)c3)oc2c1O | 421 | 21 | IC50 [3]: 421 nM |
| O=C(O)CCCOc1c(O)ccc2cc(-c3ccc(OC(F)F)c(OCC4CC4)c3)oc12 | 22 | 1.2 | – |
| O=C(Nc1c(Cl)cncc1Cl)c1ccc(OC(F)F)c(OCC2CC2)c1 | – | – | Activity (HaCaT [4]): Active; inhibition (HaCaT [5]): Active; Activity (Mus musculus [6]): Active; Activity (Mus musculus [7]): Active; Activity (Mus musculus [8]): Active; Activity (Mus musculus [9]): Active; Activity (Mus musculus [10]): Active; Activity (Mus musculus [11]): Active; Activity (Mus musculus [12]): Active; Activity (Mus musculus [13]): Active; Activity (Mus musculus [14]): Active; Activity (Mus musculus [15]): Active |
| COC(=O)[C@@H](N)CCOc1c(O)ccc2cc(-c3ccc(OC(F)F)c(OCC4CC4)c3)oc12 | 29.5 | 4.8 | – |
| O=C(O)CCCCOc1c(O)ccc2cc(-c3ccc(OC(F)F)c(OCC4CC4)c3)oc12 | 20.6 | 92.4 | – |

Second part, led by results:

| IC50 [1] [nM] | half-life at 1 µM [2] [min] | Compound | further results |
| --- | --- | --- | --- |
| 30 | 3.7 | COC(=O)[C@H]1C[C@H](Oc2c(O)ccc3cc(-c4ccc(OC(F)F)c(OCC5CC5)c4)oc23)CN1 | – |
| 43.7 | 3.4 | COC(=O)[C@@H]1C[C@@H](Oc2c(O)ccc3cc(-c4ccc(OC(F)F)c(OCC5CC5)c4)oc23)CN1 | – |
| 39.1 | – | COC(=O)COc1c(O)ccc2cc(-c3ccc(OC(F)F)c(OCC4CC4)c3)oc12 | – |
| > 100 | – | O=C(O)[C@H]1C[C@@H](Oc2c(O)ccc3cc(-c4ccc(OC(F)F)c(OCC5CC5)c4)oc23)CN1 | – |
| 10.9 | 4 | COC(=O)[C@@H]1C[C@H](Oc2c(O)ccc3cc(-c4ccc(OC(F)F)c(OCC5CC5)c4)oc23)CN1 | – |
| > 100 | – | O=C(O)[C@@H]1C[C@@H](Oc2c(O)ccc3cc(-c4ccc(OC(F)F)c(OCC5CC5)c4)oc23)CN1 | – |
| > 100 | – | O=C(O)[C@H]1C[C@H](Oc2c(O)ccc3cc(-c4ccc(OC(F)F)c(OCC5CC5)c4)oc23)CN1 | – |
| > 100 | – | O=C(O)[C@@H]1C[C@H](Oc2c(O)ccc3cc(-c4ccc(OC(F)F)c(OCC5CC5)c4)oc23)CN1 | – |
